Type in all cases: cell-based
One data set deals with HepG2 cells. The data set can be described thus: MTT toxicity assay. The settings on record: 24 h; for GI50: Homo sapiens, test materials 100-500 μM, linear regression. The procedure: The cytotoxic effect was analyzed by using the MTT assay as described by Mosmann, J. Immunol Methods. 65:55-63 (1983), with minor modification. HepG2 cells were seeded at 5×10^3 cells/well into a 96-well plate and incubated for 24 h. Spent media was then replaced with fresh media containing test materials (100-500 μM) dissolved in DMSO. Vehicle control cells were treated only with DMSO. The plates were incubated in a CO2 incubator for 24 h. The spent media was then replaced with sterile MTT solution (5 mg/mL in PBS at pH—7.4; 100 μL/well) and incubated for another 3 h. The unreacted MTT dye was removed, and the formazan crystals were dissolved with DMSO (200 μL/well) and kept in dark for 30 min. The resulting purple color was quantified by measuring absorbance at 570 nm. The assays were performed thrice and the results were expressed in percentage in comparison to vehicle-treated cells. The following formula was used for calculation.
[formula] GI50 values were calculated using linear regression analysis.

For data set [1], the system named is palmitate-oleate induced steatotic HepG2 cells. The data set can be described thus: Reduction of Oil Red O stain in palmitate-oleate induced steatotic HepG2 cells. The settings on record: Homo sapiens, PO-BSA 1 mM, 24 h, test materials 12.5-50 μM. The procedure: (§1) Induction of steatosis was done in accordance with the protocol of Hetherington and coworkers, Cell Physiol Biochem. 39:1648-62 (2016), with slight modification. HepG2 cells were loaded in 24-well cell culture plates at a density of 4×10^4 cells/well and kept overnight. On the next day, the media were replaced with fresh media containing PO-BSA at 1 mM concentration, with or without test materials (12.5-50 μM) dissolved in DMSO. The cells supplemented with media containing only BSA (instead of PO-BSA) and treated with DMSO (FIG. 2A) served as the normal control. The cells supplemented with media containing PO-BSA and treated with DMSO (FIG. 2B) served as negative control. Fenofibrate (12.5-50 μM) (FIG. 2C) was used as the positive control. After 24 h of treatment, the cells were taken for the analyses.
After treatment, the amount of lipids accumulated into the cells was measured using ORO staining. Briefly, 24 h after treatment, the spent media was removed and the cells were fixed by incubating them with 10% formalin in PBS for 1 h at room temperature. Each well was washed with 60% aqueous isopropanol and was allowed to dry. […] Cell morphology was assessed and photographed (400×) using an inverted microscope. The ORO stain was eluted with 100% isopropanol and measured at 500 nm. […] The results were expressed as the percentage of absorbance of the sample to the absorbance of the control blank.

Data set [2] shares this test system. The data set can be described thus: Lipoperoxide formation (MDA/TBARS) in palmitate-oleate induced HepG2 cells. The settings on record: 50 μM, 24 h. As for the experimental part:
as §1
(§2) After treatment, the cells were harvested and lysed using 1×PBS under sonication at 3× for five second intervals at 40V setting over ice. The cell lysates were taken and estimated for TG and protein using commercial spectrophotometric kits. TG levels were normalized to the protein content, and results were expressed as mg TG/g protein. The MDA levels in the cell lysate were estimated using a commercial spectrophotometric kit. The levels of ALT were measured in the spent media, and cell lysate and percent ALT leakage was calculated using the following formula: […]

Data set [3] has the same test system. In words: Triglyceride accumulation in palmitate-oleate induced HepG2 cells. As to conditions: 50 μM, 24 h. As for the experimental part:
as §1, §2

For data set [4] the test system is unchanged. The data set can be described thus: ALT leakage of palmitate-oleate induced HepG2 cells. As to conditions: 24 h. As for the experimental part: as §1, §2

Here are results for 2 molecules from patent US10064841B1, “Isoandrographolide-19-propionate for treatment of non-alcoholic fatty liver disease (NAFLD)” (KING SAUD UNIVERSITY, priority 2018, dated 2018).

Molecules are shown by their SMILES.

In general, GI50 refers to the concentration giving 50% growth inhibition. Read a high GI50 as lower sensitivity of the cells. In general, EC50 refers to the concentration needed to bring the measured effect to its halfway point. Molecule `C=C1CC[C@@H]2[C@](C)(CO)[C@H](O)CC[C@@]2(C)[C@@H]1C/C=C1/C(=O)OC[C@H]1O` [AN, Andrographolide] came in with a GI50 in the data set with HepG2 cells of 254 µM. This molecule also yielded a concentration for a half-maximal effect (EC50) in data set [1] of 43.3 µM.

Consider `CCC(=O)OCC1(C)[C@H](O)CC[C@@]2(C)C3C[C@@H](C4=CCOC4=O)O[C@]3(C)CC[C@H]12` (some centres unmarked) [IAN-19P, isoandrographolide-19-propionate], for which the lipoperoxide formation entry in data set [2] is given as “significantly lowered”. Besides, the triglyceride level entry in data set [3] is “come to normal”. Also, in the data set on HepG2 cells, the “toxicity compared with AN (MTT assay)” value was “comparatively lower toxicity than AN” and the GI50 stood at 27000 µM. Moreover, the ALT leakage result in data set [4] was “lowered ALT leakage”. This molecule also showed an EC50 in data set [1] of 8.92 µM.
